Patent US11622951B2, “Alpha-aminoadipate for treatment of vision loss and restoring sight” (The Schepens Eye Research Institute, Inc., priority 2013, dated 2023)

Columns and labels:
Müller glia = assay: Electron microscopy count of Müller cell nuclei in retinal sections; format: in vivo, mouse; conditions: 3 days after subretinal injection 1 μg/μl, vs saline-injected group
Method: Mice were sacrificed 3 days after receiving the injection of α-AA (1 μg/μl) or saline as controls by injection of overdose of ketamine/xylazine followed by cervical dislocation, and the eyeballs were dissected, fixed with Karnovsky's fixative (pH 7.4) for 24 h. The quadrants of the eyes that received subretinal injection were dissected and embedded in Epon-Araldite. Semi-thin sections (1-2 μm) were stained with phenylenediamine phase staining. The sections were examined and photographed with a transmission electron microscope (EM410; Philips; Eindhoven, The Netherlands). Ten randomly selected retinal sections of each eye were photographed at 1900× magnification, and all Müller glial nuclei in the photomicrograph were counted.
Retinal sections were examined under electron microscopy, in which Müller glia were identified by their characteristic angular nuclei, dense chromatin and dark perinuclear cytoplasm (FIG. 1e-h). […] This was also confirmed by immunolabeling for specific markers of retinal neurons, including photoreceptors (recoverin) and amacrine cells (syntaxin) (FIG. 2).

[1] = system: rod photoreceptor cell function; assay: Scotopic ERG a-wave after retinal progenitor transplantation in Gnat1-/- mice; format: in vivo, mouse; conditions: pretreatment plus retinal progenitor cell transplantation, 21 days post transplantation
Method: At 2 days before transplantation, 2 μl of a solution containing either α-AA (1 μg/μl) or saline (control) was injected unilaterally into the subretinal space of recipient wild-type or Gnat1^−/− mice (>2 months old). The procedure for donor cell preparation was essentially as described by Kinouchi et al, 2003, Nat Neurosci, 6:863-868. Briefly, retinal progenitor cells were isolated from postnatal day 0 (P0) EGFP transgenic mice. Cell suspensions containing approximately 1×10^6 dissociated cells were injected slowly through a glass micropipette into the subretinal space of pretreated recipient mice through the same injection site where either saline or α-AA had been injected 2 days prior.
At 21 days post transplantation, Gnat1−/− mice that had received either α-AA or saline-pretreatment followed by retinal progenitor cell transplantation were analyzed by full-field ERG. Mice were dark adapted for 12 hours and then anesthetized by intraperitoneal injection of ketamine (62.5 mg/kg) and xylazine (12.5 mg/kg). […] A total of six scans were taken and averaged; the a-wave amplitudes were measured from baseline to the peak in the cornea-negative direction. […] Statistical significance was calculated using the Student's t test or ANOVA. […]

retinal ganglion cells = assay: Cell-attached patch clamp of retinal ganglion cells from Rho-/- mice; parameters: species or system mouse; conditions: retinas extracted from treated eyes of Rho-/- mice, cells responding/recorded
Method: Mice carrying rhodopsin deficiency (Rho^−/−) were used to determine if injection of alpha-aminoadipate (αAA) is sufficient to induce neuroregeneration from endogenous retinal progenitors, e.g., Muller cells, leading to preservation and restoration of photoreceptor cell function. Light-evoked photoreceptor responses and retinal functions in Rho^−/− mice that received αAA or saline injection were assessed using ERGS and whole cell-attached patch clamp. […] Consistent with the presence of ERG b-waves in αAA-treated eye, light-elicited spiking responses in some of the ganglion cells were observed (n=4/9) (FIG. 15 A, B). Similar to findings from other types of retinal degenerative mice, an elevated level of background firing in these cells, likely due to the changes in the excitability of the presynaptic network formed by bipolar cells and amacrine cells, were also observed. In contrast, no light-elicited responses in ganglion cells were recorded from the saline-injected eyes (n=4/4, FIG. 14C). […] Additional vision and optomotor tests known in the art are conducted to assess vision restoration, such as the water maze test. Thus, a single intraocular injection of αAA may be sufficient to improve vision, in part by increasing the number of cones.

cone photoreceptor cells = assay: Cone opsin immunohistochemistry of retinal sections of Rho-/- mice; format: in vivo, mouse
Method: To determine if αAA induces functional neuroregeneration in Rho^−/− mice, αAA was injected subretinally into the left eyes of 6 week-old Rho^−/− mice, while their contralateral eyes were injected with saline and served as controls. After a 4 week survival period to allow regeneration of new photoreceptors, mouse ERG was measured in both eyes and then performed immunohistochemistry to identify photoreceptor cells. Rho^−/− mice lack the rod photoreceptor cell component or ERG a-wave. As cones consist of ˜3% of photoreceptors in mice, it is difficult to assess cone action a-wave; therefore, flicker ERG photometry under cone-isolation conditions was used to measure cone functions. […] The ERG b-wave arises from neural activity downstream of photoreceptors, its presence in the αAA treated eye has a very important implication: not only is the treatment creating new or preserving existing photoreceptors, such photoreceptors are integrating into the existing retinal circuitry in such a way as to elicit activity in downstream neurons (most likely bipolar cells). […] Consistent with the presence of ERG b-waves in αAA-treated eye, light-elicited spiking responses in some of the ganglion cells were observed (n=4/9) (FIG. 15 A, B). […] In contrast, no light-elicited responses in ganglion cells were recorded from the saline-injected eyes (n=4/4, FIG. 14C). […]

NC(CCCC(=O)O)C(=O)O (stereo not drawn) [α-AA, alpha-aminoadipate]
reduction in counts of Müller cell nuclei (Müller glia): 30% | ERG a-wave (rod photoreceptor response) [1]: a typical a-wave was detected | ganglion cells with light-elicited spiking responses (retinal ganglion cells): 4/9 | retinal neuron damage (cone photoreceptor cells; single intraocular injection): does not cause apparent retinal neuron damage | number of cone photoreceptor cells (cone photoreceptor cells; single subretinal injection at 6 weeks old, vs saline-treated control): increased number of cone photoreceptor cells
